Format in all cases: functional
Assay [1] relates to Morganella morganii. In words: Antibacterial activity against beta-lactamase producing Morganella morganii ATCC 25830 assessed as growth inhibition after 18 hrs by agar dilution method. The settings on record: ATCC 25830, 18 h.
Assay [2] has as its system Pseudomonas aeruginosa. In words: Antibacterial activity against beta-lactamase producing Pseudomonas aeruginosa ATCC 27853 assessed as growth inhibition after 18 hrs by agar dilution method. The following applies: ATCC 27853, 18 h.
In assay [3] the test system is Klebsiella pneumoniae. In words: Antibacterial activity against New Delhi metallo-beta-lactamase 1 producing Klebsiella pneumoniae ATCC BAA-2146 assessed as growth inhibition after 18 hrs by agar dilution method. The following applies: ATCC BAA-2146, 18 h.
Assay [4] relates to Klebsiella pneumoniae. The assay can be described thus: Antibacterial activity against extended spectrum beta-lactamase producing Klebsiella pneumoniae ATCC 700603 assessed as growth inhibition after 18 hrs by agar dilution method. The settings on record: ATCC 700603, 18 h.
For assay [5], the system named is Escherichia coli. The assay can be described thus: Antibacterial activity against beta-lactamase producing Escherichia coli 09-20 assessed as growth inhibition after 18 hrs by agar dilution method. The settings on record: 09-20, 18 h.
Assay [6] relates to Escherichia coli. The assay can be described thus: Antibacterial activity against extended spectrum beta-lactamase producing Escherichia coli 09-1 assessed as growth inhibition after 18 hrs by agar dilution method. The following applies: 09-1, 18 h.
In assay [7] the test system is Micrococcus luteus. In words: Antibacterial activity against apramycin-resistant Micrococcus luteus ATCC 10240 assessed as growth inhibition after 18 hrs by agar dilution method. The following applies: ATCC 10240, 18 h.
In assay [8] the test system is Enterococcus faecium. The assay can be described thus: Antibacterial activity against vancomycin-sensitive Enterococcus faecium 09-10 assessed as growth inhibition after 18 hrs by agar dilution method. The following applies: 09-10, 18 h.
The subject of assay [9] is Enterococcus faecium. In words: Antibacterial activity against vancomycin-resistant Enterococcus faecium ATCC 700221 assessed as growth inhibition after 18 hrs by agar dilution method. The following applies: ATCC 700221, 18 h.
The test system of assay [10] is Enterococcus faecalis. In words: Antibacterial activity against vancomycin-resistant Enterococcus faecalis R6512 assessed as growth inhibition after 18 hrs by agar dilution method. The settings on record: R6512, 18 h.
Assay [11] has as its system Enterococcus faecalis. In words: Antibacterial activity against vancomycin-resistant Enterococcus faecalis W4138 assessed as growth inhibition after 18 hrs by agar dilution method. The settings on record: W4138, 18 h.
The test system of assay [12] is Enterococcus faecalis. The assay can be described thus: Antibacterial activity against vancomycin-resistant Enterococcus faecalis ATCC 51299 assessed as growth inhibition after 18 hrs by agar dilution method. The following applies: ATCC 51299, 18 h.
Assay [13] concerns Enterococcus faecalis. The assay can be described thus: Antibacterial activity against vancomycin-sensitive Enterococcus faecalis 09-8 assessed as growth inhibition after 18 hrs by agar dilution method. The settings on record: 09-8, 18 h.
The subject of assay [14] is Enterococcus faecalis. The assay can be described thus: Antibacterial activity against vancomycin-sensitive Enterococcus faecalis ATCC 29212 assessed as growth inhibition after 18 hrs by agar dilution method. The following applies: ATCC 29212, 18 h.
Assay [15] concerns Staphylococcus epidermidis. The assay can be described thus: Antibacterial activity against methicillin-resistant Staphylococcus epidermidis 09-3 assessed as growth inhibition after 18 hrs by agar dilution method. The settings on record: 09-3, 18 h.
In assay [16] the test system is Staphylococcus aureus. In words: Antibacterial activity against thiostrepton-resistant Staphylococcus aureus ATCC 6538P assessed as growth inhibition after 18 hrs by agar dilution method.
For assay [17], the system named is Staphylococcus aureus. The assay can be described thus: Antibacterial activity against methicillin-resistant Staphylococcus aureus R6101 assessed as growth inhibition after 18 hrs by agar dilution method. The following applies: R6101, 18 h.
In assay [18] the test system is Staphylococcus aureus. The assay can be described thus: Antibacterial activity against methicillin-resistant Staphylococcus aureus 09-13 assessed as growth inhibition after 18 hrs by agar dilution method. The settings on record: 09-13, 18 h.
Assay [19] deals with Staphylococcus aureus. The assay can be described thus: Antibacterial activity against methicillin-resistant Staphylococcus aureus ATCC 33591 assessed as growth inhibition after 18 hrs by agar dilution method. The following applies: ATCC 33591, 18 h.
Assay [20] concerns Staphylococcus aureus. The assay can be described thus: Antibacterial activity against methicillin-sensitive Staphylococcus aureus 09-6 assessed as growth inhibition after 18 hrs by agar dilution method. The following applies: 09-6, 18 h.
Assay [21] relates to Staphylococcus aureus. The assay can be described thus: Antibacterial activity against methicillin-sensitive Staphylococcus aureus ATCC 29213 assessed as growth inhibition after 18 hrs by agar dilution method. The following applies: ATCC 29213, 18 h.
For assay [22], the system named is Staphylococcus epidermidis. In words: Antibacterial activity against methicillin-sensitive Staphylococcus epidermidis ATCC 12228 assessed as growth inhibition after 18 hrs by agar dilution method. The following applies: ATCC 12228, 18 h.
The test system of assay [23] is Staphylococcus epidermidis. In words: Antibacterial activity against methicillin-sensitive Staphylococcus epidermidis 09-9 assessed as growth inhibition after 18 hrs by agar dilution method. The following applies: 09-9, 18 h.

Our source for the MIC values is ChEMBL document CHEMBL3085634, “Identification of elaiophylin derivatives from the marine-derived actinomycete Streptomyces sp. 7-145 using PCR-based screening” (2013).

SMILES strings stand for the structures. Converted amounts (≈) assume the structure as drawn. Bounds are passed on as bounds.

On to `CC[C@@H]1[C@@H](C)O[C@@](O)([C@@H](C)[C@H](O)[C@H](C)[C@H]2OC(=O)/C=C/C=C/[C@H](C)[C@@H]([C@@H](C)[C@@H](O)[C@H](C)[C@@]3(O)C[C@@H](O[C@H]4C[C@H](O)[C@H](O)[C@H](C)O4)[C@H](C)[C@@H](C)O3)OC(=O)/C=C/C=C/[C@@H]2C)C[C@H]1O[C@H]1C[C@H](O)[C@H](O)[C@H](C)O1`, for which the minimum inhibitory concentration (MIC) in assay [1], in [2], in [3], in assay [4], in assay [5] and in [6] was over 64 µg/mL throughout. The MIC in [7] was 2 µg/mL (≈ 1.98 µM); in assay [8], over 64 µg/mL; in assay [9], 2 µg/mL (≈ 1.98 µM); in [10] it was 2 µg/mL (≈ 1.98 µM); in assay [11], 4 µg/mL (≈ 3.96 µM); in assay [12], 2 µg/mL (≈ 1.98 µM). The MIC in assay [13] turned out to be 16 µg/mL (≈ 15.8 µM); in assay [14], 2 µg/mL (≈ 1.98 µM); in [15] it was 4 µg/mL (≈ 3.96 µM); in assay [16], 2 µg/mL (≈ 1.98 µM); in assay [17] it was 2 µg/mL (≈ 1.98 µM); in assay [18], 2 µg/mL (≈ 1.98 µM). The MIC in [19] is 2 µg/mL (≈ 1.98 µM); in assay [20], 2 µg/mL (≈ 1.98 µM); in assay [21], 2 µg/mL (≈ 1.98 µM); in assay [22], 4 µg/mL (≈ 3.96 µM).
In the case of `CC[C@H]1OC(=O)[C@H](C)[C@@H](O[C@H]2C[C@@](C)(OC)[C@@H](O)[C@H](C)O2)[C@H](C)[C@@H](O[C@@H]2O[C@H](C)C[C@H](N(C)C)[C@H]2O)[C@](C)(O)C[C@@H](C)CN(C)[C@H](C)[C@@H](O)[C@]1(C)O` [AZITHROMYCIN], the MIC was 64 µg/mL (≈ 85.4 µM) in assay [1]; 256 µg/mL (≈ 342 µM) in [2]; 64 µg/mL (≈ 85.4 µM) in assay [3]; 64 µg/mL (≈ 85.4 µM) in assay [4]; over 256 µg/mL in [5]; 64 µg/mL (≈ 85.4 µM) in assay [6]. Besides, the minimum inhibitory concentration (MIC) in assay [7] is 2 µg/mL (≈ 2.67 µM); in assay [8], over 256 µg/mL; in assay [9], over 256 µg/mL; in assay [10], over 256 µg/mL; in [11], over 256 µg/mL; in assay [12], over 256 µg/mL. Besides, the MIC in assay [13] was over 256 µg/mL; in [14], 8 µg/mL (≈ 10.7 µM); in [15], over 256 µg/mL; in assay [16] it was over 256 µg/mL; in assay [17] it was over 256 µg/mL; in assay [18] it was over 256 µg/mL. Moreover, the MIC is over 256 µg/mL in [19], 2 µg/mL (≈ 2.67 µM) in assay [20], 2 µg/mL (≈ 2.67 µM) in [21] and over 256 µg/mL in assay [22].
On to `CC[C@@H]1[C@@H](C)O[C@@](OC)([C@@H](C)[C@H](O)[C@H](C)[C@H]2OC(=O)/C=C/C=C/[C@H](C)[C@@H]([C@@H](C)[C@@H](O)[C@H](C)[C@@]3(O)C[C@@H](O[C@H]4C[C@H](O)[C@H](O)[C@H](C)O4)[C@H](CC)[C@@H](C)O3)OC(=O)/C=C/C=C/[C@@H]2C)C[C@H]1O[C@H]1C[C@H](O)[C@H](O)[C@H](C)O1`, for which the minimum inhibitory concentration (MIC) in [1], in [2], in assay [3], in assay [4], in [5] and in assay [6] was over 256 µg/mL each time. For the same compound, the MIC in assay [7] was found to be 2 µg/mL (≈ 1.92 µM); in assay [8], 2 µg/mL (≈ 1.92 µM); in assay [9], 2 µg/mL (≈ 1.92 µM); in [10] it was 1 µg/mL (≈ 0.962 µM); in [11], 2 µg/mL (≈ 1.92 µM); in assay [12], 1 µg/mL (≈ 0.962 µM). Moreover, the MIC in assay [13] was 2 µg/mL (≈ 1.92 µM); in assay [14], 32 µg/mL (≈ 30.8 µM); in assay [15], 2 µg/mL (≈ 1.92 µM); in [23], 2 µg/mL (≈ 1.92 µM); in [16], 2 µg/mL (≈ 1.92 µM); in [17], 1 µg/mL (≈ 0.962 µM). In addition, the MIC in assay [18], in [19], in [20], in assay [21] and in assay [22] was 2 µg/mL (≈ 1.92 µM) each time.
Take `CC[C@@H]1[C@@H](C)OC([C@@H](C)[C@H](O)[C@H](C)[C@H]2OC(=O)/C=C/C=C/[C@H](C)[C@@H]([C@@H](C)[C@@H](O)[C@H](C)[C@@]3(O)C[C@@H](O[C@H]4C[C@H](O)[C@H](O)[C@H](C)O4)[C@H](CC)[C@@H](C)O3)OC(=O)/C=C/C=C/[C@@H]2C)=C[C@H]1O[C@H]1C[C@H](O)[C@H](O)[C@H](C)O1`: the minimal inhibitory concentration (MIC) in assay [1], in assay [2], in [3], in assay [4], in assay [5] and in [6] was over 64 µg/mL each time. Also, the MIC in [7] was 2 µg/mL (≈ 1.99 µM); in assay [8], over 64 µg/mL; in [9], 4 µg/mL (≈ 3.97 µM); in assay [10], 4 µg/mL (≈ 3.97 µM); in [11] it was 4 µg/mL (≈ 3.97 µM); in [12], 2 µg/mL (≈ 1.99 µM). In addition, the MIC in assay [13] is 2 µg/mL (≈ 1.99 µM); in [14], 2 µg/mL (≈ 1.99 µM); in [15] it was over 64 µg/mL; in assay [16], 4 µg/mL (≈ 3.97 µM); in [17], over 64 µg/mL; in assay [18], 2 µg/mL (≈ 1.99 µM). In addition, the MIC in assay [19] is 2 µg/mL (≈ 1.99 µM); in [20], 2 µg/mL (≈ 1.99 µM); in [21] it was 2 µg/mL (≈ 1.99 µM); in assay [22], over 64 µg/mL.
Regarding `CN[C@H](CC(C)C)C(=O)N[C@H]1C(=O)N[C@@H](CC(N)=O)C(=O)N[C@H]2C(=O)N[C@H]3C(=O)N[C@H](C(=O)N[C@H](C(=O)O)c4cc(O)cc(O)c4-c4cc3ccc4O)[C@H](O)c3ccc(c(Cl)c3)Oc3cc2cc(c3O[C@@H]2O[C@H](CO)[C@@H](O)[C@H](O)[C@H]2O[C@H]2C[C@](C)(N)[C@H](O)[C@H](C)O2)Oc2ccc(cc2Cl)[C@H]1O` [VANCOMYCIN], the MIC in [10] was over 256 µg/mL; in [11] it was 4 µg/mL (≈ 2.76 µM); in assay [12] it was 4 µg/mL (≈ 2.76 µM); in assay [13], 1 µg/mL (≈ 0.69 µM); in assay [14] it was 1 µg/mL (≈ 0.69 µM); in assay [23] it was 0.5 µg/mL (≈ 0.345 µM). Besides, in [22], the MIC worked out at 0.5 µg/mL (≈ 0.345 µM).
